Reference: patent US7868135B2, “Compositions of lipopeptide antibiotic derivatives and methods of use thereof” (priority 2003, dated 2011)
Read-outs that look alike come from different tables or passages of the source.

Tests used:
[1] = test system: Staphylococcus aureus (MSSA)
Summary of the method: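 Broth microdilution MIC per NCCLS M7-A6 with doubling serial dilutions, in cation-adjusted Mueller-Hinton broth supplemented with 0.625 mM calcium.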

[2] = test system: Enterococcus faecium EFM0101 (VRE, MDR); test: Broad spectrum MIC, Table 17/18 column A; type: cell-based; conditions: condition A of Table 17, in µg/mL
Procedure: (§1) The antimicrobial lipopeptide derivatives described herein were tested for antimicrobial activity against Gram-positive bacteria as follows. The minimum inhibitory concentrations (MIC) of the antimicrobial lipopeptide derivatives of the invention were determined using NCCLS guidelines M7-A6 (2003) with a slight modification in that doubling serial dilutions were used to dilute the test compounds. The broth phase microdilution method was used. Isolated colonies of Staphylococcus aureus (MSSA) from an 18-24 hour blood agar plate cultures were used to inoculate cation adjusted Mueller-Hinton broth (CAMHB) supplemented with 0.625 mM calcium. […] A negative control containing media alone and a positive growth control containing bacteria with media alone were also included. MICs were determined after incubating the plates at about 37° C. for 24 hours. […] In Tables 1 to 16, R is the core cyclic peptide of amphomycin or aspartocin, which can be in the form of a β-isomer, an anhydro, a dianhydro, or any combination thereof. […] Furthermore, a person of skill in the art will appreciate that all the pounds, or groups of compounds, derived from the various combinations of and substituents shown in Tables 1 to 16, are disclosed by the present the same extent as if each compound or group of compounds was set forth individually.
(§2) Antimicrobial lipopeptide derivatives of the instant invention were tested for antimicrobial activity against Gram-positive bacteria in a variety of media conditions. The […] (MIC) of the antimicrobial lipopeptide derivatives were determined as described in Example 376. The various media used are described in Table 17.

[3] = test system: Enterococcus faecalis EFS0004 (VSE); test: Broad spectrum MIC, Table 17/18 B, C, D (CAMHB; + 0.625 mM calcium; + calcium and 30% bovine serum); type: cell-based; conditions: in µg/mL; for MIC, media condition B: condition B: CAMHB; for MIC, media condition C: condition C: + 0.625 mM calcium; for MIC, media condition D: condition D: + calcium and 30% bovine serum
Procedure: as §1, §2

[4] = test system: Staphylococcus aureus SAU0017 (MSSA); test: Broad spectrum MIC, Table 17/18 columns E, F (+ 0.625 mM calcium; + calcium and 30% bovine serum); type: cell-based; conditions: in µg/mL; for MIC, media condition E: condition E: + 0.625 mM calcium; for MIC, media condition F: condition F: + calcium and 30% bovine serum
Procedure: as §1, §2

[5] = test system: Staphylococcus aureus SAU0031 (VISA); test: Broad spectrum MIC, Table 17/18 column G; type: cell-based; conditions: condition G of Table 17, in µg/mL
Procedure: as §1, §2

[6] = test system: Staphylococcus aureus SAU0065 (MRSA); test: Broad spectrum MIC, Table 17/18 column H; type: cell-based; conditions: condition H of Table 17, in µg/mL
Procedure: as §1, §2

[7] = test system: Staphylococcus epidermidis SEP0375 (MRSE); test: Broad spectrum MIC, Table 17/18 column I; type: cell-based; conditions: condition I of Table 17, in µg/mL
Procedure: as §1, §2

[8] = test system: Streptococcus pneumoniae SPN0002 (PISP); test: Broad spectrum MIC, Table 17/18 column J; type: cell-based; conditions: condition J of Table 17, in µg/mL
Procedure: as §1, §2

[9] = test system: Streptococcus pneumoniae SPN0023 (PRSP); test: Broad spectrum MIC, Table 17/18 column K; type: cell-based; conditions: condition K of Table 17, in µg/mL
Procedure: as §1, §2

[10] = test system: Streptococcus pneumoniae SPN0032 (PSSP); test: Broad spectrum MIC, Table 17/18 column L; type: cell-based; conditions: condition L of Table 17, in µg/mL
Procedure: as §1, §2

[11] = test system: Streptococcus pyogenes SPY0001 (PenS); test: Broad spectrum MIC, Table 17/18 column M; type: cell-based; conditions: condition M of Table 17, in µg/mL
Procedure: as §1, §2

| SMILES | MIC ([1]; 24 h) | MIC, media condition A [2] | MIC, media condition B [3] | MIC, media condition C [3] | MIC, media condition D [3] | MIC, media condition E [4] | MIC, media condition F [4] | MIC, media condition G [5] | MIC, media condition H [6] | MIC, media condition I [7] | MIC, media condition J [8] | MIC, media condition K [9] | MIC, media condition L [10] | MIC, media condition M [11] | MIC ([1]; S. aureus (MSSA), CAMHB supplemented with 0.625 mM calcium, 24 hours at about 37° C., a range = compound tested multiple times) |
| --- | --- | --- | --- | --- | --- | --- | --- | --- | --- | --- | --- | --- | --- | --- | --- |
| CCCCCCCCCCCCNC(=O)NC(CC(=O)O)C(=O)NC1C(=O)N2CCCCC2C(=O)NC(C(C)C(=O)O)C(=O)NC(CC(=O)O)C(=O)NCC(=O)NC(CC(=O)O)C(=O)NCC(=O)NC(C(C)N)C(=O)NC(C(C)C)C(=O)N2CCCC2C(=O)NC1C (centres unmarked) [Compound 251, CH3—(CH2)11—NH—C(═O)-Amphomycin] | 2 µg/mL | 4 | 8 | 4 | 32 | 2 | 8 | 4 | 2 | 2 | 0.5 | 1 | 1 | 2 |  |
| CCCCCCCCCCCCCCCCC(=O)NC(CC(=O)O)C(=O)NC1C(=O)N2CCCCC2C(=O)NC(C(C)C(=O)O)C(=O)NC(CC(=O)O)C(=O)NCC(=O)NC(CC(=O)O)C(=O)NCC(=O)NC(C(C)NC(=O)CCN)C(=O)NC(C(C)C)C(=O)N2CCCC2C(=O)NC1C (stereo not drawn) [Compound 80, C17-Amphomycin-9-(β-Ala)] |  | 0.5-1 | 0.5-1 | 0.5-1 | 64 | 0.5-1 | 16-32 | 8 | 2 | 1-2 | 0.125 | 0.125 | 0.25 | 0.25-0.5 | 80/0.5-1 μg/mL |
| CCCCCCCCCCCCOc1ccc(C(=O)NC(CC(=O)O)C(=O)NC2C(=O)N3CCCCC3C(=O)NC(C(C)C(=O)O)C(=O)NC(CC(=O)O)C(=O)NCC(=O)NC(CC(=O)O)C(=O)NCC(=O)NC(C(C)NC(=O)CN)C(=O)NC(C(C)C)C(=O)N3CCCC3C(=O)NC2C)cc1 (centres unmarked) [Compound 88, CH3—(CH2)11—O-p-Ph-C(═O)-Amphomycin-9-Gly] |  | 0.25-0.5 | 0.5-1 | 0.25-0.5 | >64 | 0.5-1 | 32-64 | 2-4 | 0.5-1 | 0.5-1 | 0.25 | 0.125 | 0.25 | 0.25-0.5 |  |
| CCCCCCCCCCCCCCCCC(=O)NC(CC(=O)O)C(=O)NC1C(=O)N2CCCCC2C(=O)NC(C(C)C(=O)O)C(=O)NC(CC(=O)O)C(=O)NCC(=O)NC(CC(=O)O)C(=O)NCC(=O)NC(C(C)N)C(=O)NC(C(C)C)C(=O)N2CCCC2C(=O)NC1C (centres unmarked) [Compound 12, C17-Amphomycin] | 1 to 2 µg/mL | 0.5-1 | 0.5-1 | 1 | 64 | 1-2 | 32-64 | 4-8 | 1-2 | 2 | 0.25 | 0.125 | 0.25-0.5 | 0.5 |  |
| CCCCCCCCCCCCCCC(=O)NC(CC(=O)O)C(=O)NC1C(=O)N2CCCCC2C(=O)NC(C(C)C(=O)O)C(=O)NC(CC(=O)O)C(=O)NCC(=O)NC(CC(=O)O)C(=O)NCC(=O)NC(C(C)NC(=O)[C@@H]2CCCN2)C(=O)NC(C(C)C)C(=O)N2CCCC2C(=O)NC1C (some centres unmarked) [Compound 160, C15-Amphomycin-9-Pro] | 4 µg/mL | 8 | 16 | 8 | >64 | 4 | >64 | 16 | 4 | 4 | 0.5 | 0.25 | 2 | 2 |  |
| CCCCCCCCCCCCCCC(=O)NC(CC(=O)O)C(=O)NC1C(=O)N2CCCCC2C(=O)NC(C(C)C(=O)O)C(=O)NC(CC(=O)O)C(=O)NCC(=O)NC(CC(=O)O)C(=O)NCC(=O)NC(C(C)NC(=O)CNC(=O)[C@@H](C)N)C(=O)NC(C(C)C)C(=O)N2CCCC2C(=O)NC1C (stereo partly drawn) [Compound 69, C15-Amphomycin-9-Gly-(D-Ala)] | 1 µg/mL | 4 | 8 | 4 | >64 | 1 | 32 | 8 | 2 | 4 | 1 | 1 | 2 | 1 |  |
| CCCCCCCCCCCCNC(=O)NC(CC(=O)O)C(=O)NC1C(=O)N2CCCCC2C(=O)NC(C(C)C(=O)O)C(=O)NC(CC(=O)O)C(=O)NCC(=O)NC(CC(=O)O)C(=O)NCC(=O)NC(C(C)NC(=O)CCN)C(=O)NC(C(C)C)C(=O)N2CCCC2C(=O)NC1C (stereo not drawn) [Compound 97, CH3—(CH2)11—NH—C(═O)-Amphomycin-9-(β-Ala)] | 0.25 µg/mL | 2 | 64 | 4 | 64 | 0.25 | 16 | 4 | 1 | 1 | 0.125 | 0.25 | 0.125 | 0.5 |  |
| CCCCCCCCCCCCCCC(=O)NC(CC(=O)O)C(=O)NC1C(=O)N2CCCCC2C(=O)NC(C(C)C(=O)O)C(=O)NC(CC(=O)O)C(=O)NCC(=O)NC(CC(=O)O)C(=O)NCC(=O)NC(C(C)NC(=O)[C@H]2CCCN2)C(=O)NC(C(C)C)C(=O)N2CCCC2C(=O)NC1C (stereo partly drawn) [Compound 67, C15-Amphomycin-9-(D-Pro)] | 1 to 2 µg/mL | 2 | 2-4 | 2 | 64 | 1-2 | 8-16 | 8 | 2 | 2 | 0.5 | 0.5 | 0.5 | 0.5-1 |  |
| CCCCCCCCCCCCCCCC(=O)NC(CC(=O)O)C(=O)NC1C(=O)N2CCCCC2C(=O)NC(C(C)C(=O)O)C(=O)NC(CC(=O)O)C(=O)NCC(=O)NC(CC(=O)O)C(=O)NCC(=O)NC(C(C)N)C(=O)NC(C(C)C)C(=O)N2CCCC2C(=O)NC1C (centres unmarked) [Compound 11, C16-Amphomycin] | 0.5 µg/mL | 0.5-1 | 0.5 | 0.5-1 | 64 | 0.5 | 8-16 | 2-4 | 2-4 | 1 | 0.25 | 0.125 | 0.25 | 0.25-0.5 |  |
